Data on 28 compounds can be found in patent publication US5399565A, “Pyrazolidinone CCK and gastrin antagonists and pharmaceutical formulations therof” (priority 1993, dated 1995).

Experiment [1] deals with T1, peripheral type CCK receptors in rat pancreas (Rattus norvegicus, UniProt P30551).
T1 construct: Pancreas was obtained from male Sprague-Dawley rats; from tissue; host or cells: pancreas membranes of male Sprague-Dawley rats
T1 sequence (P30551 1-444): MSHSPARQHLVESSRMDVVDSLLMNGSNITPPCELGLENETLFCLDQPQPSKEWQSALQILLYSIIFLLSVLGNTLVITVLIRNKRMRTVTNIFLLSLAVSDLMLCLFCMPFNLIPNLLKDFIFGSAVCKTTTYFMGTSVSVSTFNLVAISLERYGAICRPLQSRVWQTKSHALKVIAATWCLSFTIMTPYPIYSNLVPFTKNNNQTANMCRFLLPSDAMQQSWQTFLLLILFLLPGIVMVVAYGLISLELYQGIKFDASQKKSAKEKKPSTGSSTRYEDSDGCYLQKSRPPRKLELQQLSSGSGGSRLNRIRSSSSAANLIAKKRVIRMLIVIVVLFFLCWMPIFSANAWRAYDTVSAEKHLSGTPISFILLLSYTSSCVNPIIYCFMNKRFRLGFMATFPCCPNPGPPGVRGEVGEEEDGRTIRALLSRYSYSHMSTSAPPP
Briefly: Binding to peripheral type CCK receptors in rat pancreas (3H-L-364,718). The note with it: for IC50: rat pancreas. As for the experimental part:
Binding to peripheral type CCK receptors in rat pancreas was done according to the method of Chang et al. (Mol. Pharmacol. 30: 212-217, 1986) using ^3 H-L364, 718. Pancreas was obtained from male Sprague-Dawley rats, 150-200 g, after decapitation, and dissected free from adipose and connective tissue. The tissue was homogenized in 30 volumes of 50 mM Tris buffer, pH 7.4 and centrifuged at 40,000 g for 10 min. The tissue pellet was washed by resuspension and centrifugation as described above. The final pellet was suspended in 500 volumes of assay buffer (50 mM Tris buffer, pH 7.4, 5 mM MgCl2, 0.14 mg/ml bacitracin, and 5 mM dithiothreitol) to give a protein concentration of 30-60 μg/200 μl . Reagent volumes for the assay were the same as those used for CCK binding to brain membranes. Tritium labeled L-364,718 (Dupont NEN, NET-971) was used as the ligand at a concentration of 0.4-0.6 nM. The samples were incubated 1 hour at room temperature and then filtered as described for the CCK-brain receptor. Scintillation cocktail was added to the filters which were counted for radioactivity using a Micromedic Taurus automatic liquid scintillation counter.
Compound samples were prepared and IC-50 values were determined as described for the CCK-brain experiments. Non-specific binding was that amount left bound to the filters after adding 100 nM L-364,718.

In another experiment the target is T2, brain CCK receptor (Mus musculus, UniProt P56481).
T2 construct: from tissue; host or cells: forebrain membranes of male CF-1 mice
T2 sequence (P56481 1-453): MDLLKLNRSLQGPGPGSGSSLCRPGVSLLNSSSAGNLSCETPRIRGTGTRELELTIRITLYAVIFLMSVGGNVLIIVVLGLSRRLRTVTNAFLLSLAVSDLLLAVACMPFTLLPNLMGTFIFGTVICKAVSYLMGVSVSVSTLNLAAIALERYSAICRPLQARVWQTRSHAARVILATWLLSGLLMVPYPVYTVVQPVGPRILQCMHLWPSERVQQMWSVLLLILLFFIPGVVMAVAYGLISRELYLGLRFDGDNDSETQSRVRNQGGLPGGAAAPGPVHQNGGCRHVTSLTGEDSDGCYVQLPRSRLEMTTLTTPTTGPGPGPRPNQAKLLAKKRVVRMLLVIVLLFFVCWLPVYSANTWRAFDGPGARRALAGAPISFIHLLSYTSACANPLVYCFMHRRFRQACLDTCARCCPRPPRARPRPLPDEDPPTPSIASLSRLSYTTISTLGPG
Briefly: CCK receptor binding, mouse brain membranes (125I-CCK-8 sulfate). The note with it: for inhibition at 1 µM / inhibition at 10 µM: read-out: Brain Percent Inhibition; for IC50: mouse brain membranes, read-out: Brain IC50. As for the experimental part: Brain CCK receptor binding was performed using mouse brain membranes according to the method of Chang and Lotti (Proc. Natl. Acad. Sci. 83: 4923-4926, 1986). Male CF-1 mice, 23-25 g were sacrificed by cervical dislocation, the forebrain removed and placed in ice cold 50 mM Tris buffer, pH 7.4. The tissue was homogenized in 100 volumes of the Tris buffer with a Brinkman Polytron or Tekmar Tissumizer and then centrifuged at 40,000 g for 10 min. Pellets were resuspended in Tris buffer, centrifuged as above and then resuspended in 100 volumes of assay buffer, pH 6.5 (20 mM N-2-hydroxyethyl-piperazine-N'-2-ethane sulfonic acid (HEPES), 1 mM ethylene glycol his (2-aminoethyl ether-N,N,N',N'-tetraacetic acid) (EGTA), 5 mM MgCl2, 130 mM NaCl, and 0.25 mg/ml bacitracin). The binding assay consisted of 50 μL of compound (or buffer for total binding), 50 μL of ^125 I-CCK-8 sulfate (20 pM) (Amersham IM- 159), 200 μL of assay buffer and 200 μL of homogenate (80-120 μg protein). The samples were incubated at room temperature (25°) for 2 hours, and they were then filtered through GF/B glass fiber filters (soaked in wash buffer for 2 hours before use) using a 48 well Brandel cell harvester designed for receptor binding. The filters were washed twice with 3 ml of 50 mM Tris buffer, pH 7.4, containing 0.01% BSA and then counted for radioactivity in plastic tubes with a Micromedic 10/600 automatic gamma counter.
Compounds were dissolved in dimethyl sulfoxide (DMSO) at a concentration of 10 mM and then further diluted with assay buffer. The concentration of DMSO in the incubation was 0.1% or less and had no effect on the assay at that level. IC-50 values of displacement curves were determined using 7 concentrations of compound and were calculated using the ALLFIT computer program of DeLean, Munson and Rodbard (Am. J. Physiol. 235: E97-E102, 1978). Non-specific binding was determined as the displacement of the radioligand by 100 nM CCK-8 sulfate.

Where [2] appears, read: read-out: Pancreas Percent Inhibition.

Each structure is given as a SMILES string.

For the compound `O=C1NN(C(=O)Nc2ccc(F)cc2F)[C@H](c2ccccc2)[C@H]1c1ccccc1` (relative stereo) [Example 56], in experiment [1] (setting [2]), the inhibition (commonly the percentage by which the read-out fell short of the control) at 10 µM worked out at 15%. Further, the inhibition at 1 µM at brain CCK receptor is 25%.

Consider `O=C1NN(C(=S)Nc2cccc(Cl)c2Cl)[C@H](c2ccccc2)[C@H]1c1ccccc1` (relative stereo) [Example 64], for which the inhibition at 1 µM in experiment [1] (at 1 μM, read-out: Pancreas Percent Inhibition) was determined as 34%. In addition, the IC50 (in general, the concentration at which inhibition is half-maximal) at brain CCK receptor is 5.3 µM.

In the case of `O=C1NN(C(=O)Nc2ccc(-c3ccccc3)cc2)[C@@H](c2ccccc2)[C@@H]1c1ccccc1` (relative stereo) [Example 32], the inhibition at 10 µM in experiment [1] (setting [2]) came out at 69%. Besides, the inhibition at 1 µM on brain CCK receptor is 42%.

Regarding `O=C1NN(C(=S)Nc2ccccc2)[C@H](c2ccccc2)[C@H]1c1ccccc1` (relative stereo) [Example 60], the results for the inhibition at 10 µM (in experiment [1] (setting [2]); at brain CCK receptor) were 37% and 34%, respectively.

Turning to `O=C1NN(C(=S)Nc2c(F)c(F)c(F)c(F)c2F)[C@H](c2ccccc2)[C@H]1c1ccccc1` (relative stereo) [Example 65], the inhibition at 10 µM in experiment [1] (setting [2]) was found to be 37%; on brain CCK receptor it was 50%.

Regarding `CCCCC1C(c2ccccc2)C(=O)NN1C(=O)Nc1ccc(C(F)(F)F)cc1` (centres unmarked) [Example 71], the inhibition at 10 µM in experiment [1] (setting [2]) was determined as 39%. Further, on brain CCK receptor, the IC50 is 1.2 µM.

On to `O=C1CC(c2ccc(-c3ccccc3)cc2)N(C(=O)Nc2cccc(Cl)c2Cl)N1` (centres unmarked) [Example 68], for which the inhibition at 10 µM in experiment [1] (setting [2]) worked out at 70%. For the same compound, the IC50 at brain CCK receptor turned out to be 4.3 µM.

For `CCOC(=O)c1ccc(NC(=O)N2NC(=O)[C@@H](c3ccccc3)[C@@H]2c2ccccc2)cc1` (relative stereo) [Example 22], the inhibition at 10 µM in experiment [1] (setting [2]) stood at 27%. Also, the inhibition at 1 µM on brain CCK receptor came to 42%.

With `O=C1NN(C(=S)Nc2ccc(Cl)c(C(F)(F)F)c2)[C@H](c2ccccc2)[C@H]1c1ccccc1` (relative stereo) [Example 63], the IC50 in experiment [1] is 0.075 µM; on brain CCK receptor it was 0.51 µM.

Turning to `O=C1NN(C(=O)NCc2ccccc2)[C@@H](c2ccccc2)[C@@H]1c1ccccc1` (relative stereo) [Example 96], the figures for the inhibition at 10 µM (in experiment [1] (setting [2]); at brain CCK receptor) were 13% and 42%, respectively.

In the case of `O=C1NN(C(=O)Nc2ccc(Br)c(C(F)(F)F)c2)[C@H](c2ccccc2)[C@H]1c1ccccc1` (relative stereo) [Example 45], the figures for the IC50 (in experiment [1]; on brain CCK receptor) were 0.16 µM and 0.022 µM, respectively.

Regarding `O=C(O)COC1=NN(C(=O)Nc2ccc(Br)cc2)[C@@H](c2ccccc2)[C@@H]1c1ccccc1` (relative stereo) [Example 12 (O--), 1-[(4-bromophenyl)aminocarbonyl]-3-carboxymethoxy-4,5-diphenyl-2-pyrazoline], in experiment [1] (setting [2]), the inhibition at 10 µM amounted to 64%. At brain CCK receptor, the concentration for half-maximal inhibition (IC50) is 0.34 µM.

For the compound `O=C1NN(C(=O)NCc2ccccc2Cl)[C@@H](c2ccccc2)[C@@H]1c1ccccc1` (relative stereo) [Example 98], the inhibition at 10 µM in experiment [1] (setting [2]) amounted to 33%; at brain CCK receptor, 74%.

For `O=C1NN(C(=O)Nc2cccc3ccccc23)[C@@H](c2ccccc2)[C@@H]1c1ccccc1` (relative stereo) [Example 90], the inhibition at 10 µM in experiment [1] (setting [2]) came to 63%. For the same compound, the inhibition at 1 µM at brain CCK receptor was determined as 45%.

Regarding `O=C1NN(C(=O)Nc2ccc(Br)cc2)C(Cc2ccccc2)C1c1ccccc1` (centres unmarked) [Example 72], the inhibition at 10 µM in experiment [1] (setting [2]) is 22%; at brain CCK receptor, 88%.

On to `O=C1NN(C(=O)NC2CCc3ccccc3C2)[C@@H](c2ccccc2)[C@@H]1c1ccccc1` (relative stereo) [Example 4, 1-[(2-[1,2,3,4-Tetrahydronaphthyl])aminocarbonyl]-4,5-diphenyl-3-pyrazolidinone], for which, in experiment [1] (setting [2]), the inhibition at 10 µM worked out at 78%. Besides, the IC50 on brain CCK receptor turned out to be 0.39 µM.

Turning to `O=C1NN(C(=S)Nc2ccc(C(F)(F)F)cc2)[C@H](c2ccccc2)[C@H]1c1ccccc1` (relative stereo) [Example 62], the inhibition at 10 µM in experiment [1] (setting [2]) came to 37%. Further, the IC50 on brain CCK receptor stood at 2.2 µM.

`O=C1NN(C(=O)c2ccc(C(F)(F)F)cc2)[C@H](c2ccccc2)[C@H]1c1ccccc1` (relative stereo) [Example 74]: the inhibition at 10 µM is 15% in experiment [1] (setting [2]) and 23% on brain CCK receptor.

As for `O=C1NN(C(=O)NC2CCCCC2)[C@@H](c2ccccc2)[C@@H]1c1ccccc1` (relative stereo) [Example 95], the inhibition at 10 µM amounted to 18% in experiment [1] (setting [2]) and 55% at brain CCK receptor.

Consider `O=C1NN(C(=O)Nc2ccc(F)cc2)[C@@H](c2ccccc2)[C@@H]1c1ccccc1` (relative stereo) [Example 17], for which the inhibition at 10 µM in experiment [1] (setting [2]) came to 6%. Moreover, the IC50 at brain CCK receptor turned out to be 0.52 µM.

For the compound `O=C1NN(C(=O)Oc2ccc([N+](=O)[O-])cc2)[C@@H](c2ccccc2)[C@@H]1c1ccccc1` (relative stereo) [Example 80], the inhibition at 10 µM in experiment [1] (setting [2]) came out at 9%. For the same compound, at brain CCK receptor, the IC50 was 5.2 µM.

For the compound `CCCCC1C(=O)NN(C(=O)Nc2ccc(Br)cc2)C1c1ccccc1` (centres unmarked) [Example 69], the inhibition at 10 µM in experiment [1] (setting [2]) turned out to be 12%. Moreover, the half-inhibitory concentration (IC50) at brain CCK receptor stood at 0.5 µM.

For `O=C1NN(C(=O)Nc2cccc(C(F)(F)F)c2)[C@@H](c2ccccc2)[C@@H]1c1ccccc1` (relative stereo) [Example 39], the inhibition at 10 µM in experiment [1] (setting [2]) was 52%. Besides, the IC50 at brain CCK receptor came to 0.33 µM.

On to `O=C1NN(c2nc3ccccc3s2)[C@@H](c2ccccc2)[C@@H]1c1ccccc1` (relative stereo) [Example 84], for which the inhibition at 10 µM in experiment [1] (setting [2]) came out at 26%; at brain CCK receptor it was 70%.

Take `COc1cccc(NC(=O)N2NC(=O)[C@H](c3ccccc3)[C@H]2c2ccccc2)c1` (relative stereo) [Example 42]: in experiment [1] (setting [2]), the inhibition at 10 µM stood at 37%. The IC50 on brain CCK receptor came to 0.78 µM.

`O=C1NN(c2nc3ccc(Br)cc3s2)[C@@H](c2ccccc2)[C@@H]1c1ccccc1` (relative stereo) [Example 85]: the results for the inhibition at 10 µM (in experiment [1] (setting [2]); on brain CCK receptor) were 19% and 78%, respectively.

In the case of `O=C1NN(C(=O)Nc2ccc(Cl)cc2)[C@@H](c2ccccc2)[C@@H]1c1ccccc1` (relative stereo) [Example 18], the inhibition at 10 µM in experiment [1] (setting [2]) came out at 22%. For the same compound, the IC50 at brain CCK receptor was 0.093 µM.

Regarding `O=C1NN(C(=O)Nc2ccc(Cl)cc2Cl)[C@H](c2ccccc2)[C@H]1c1ccccc1` (relative stereo) [Example 55], in experiment [1] (setting [2]), the inhibition at 10 µM was determined as 47%. Further, the IC50 at brain CCK receptor was 0.6 µM.
